Measurements reported in ChEMBL document CHEMBL5370585, “Exploration and Biological Evaluation of 1,3-Diamino-7H-pyrrol[3,2-f]quinazoline Derivatives as Dihydrofolate Reductase Inhibitors” (J Med Chem, 2023).
Converted amounts (≈) assume the structure as drawn.

What was measured:
Acinetobacter baumannii = assay: Antibacterial activity against Acinetobacter baumannii ATCC 19606 incubated for 16 to 18 hrs by CLSI based broth dilution method; type: functional; settings: time 16-18 hrs
Staphylococcus aureus [1] = assay: Antibacterial activity against Staphylococcus aureus ATCC 29213 incubated for 16 to 18 hrs by CLSI based broth dilution method; type: functional; settings: time 16-18 hrs
HCT-116 = assay: Cytotoxicity against human HCT-116 cells measured after 72 hrs by MTT assay; type: functional, cell-based; settings: HCT-116, 72 h
Enterococcus faecalis = assay: Antibacterial activity against Enterococcus faecalis ATCC 29212 incubated for 16 to 18 hrs by CLSI based broth dilution method; type: functional; settings: time 16-18 hrs
HepG2 = assay: Cytotoxicity against human HepG2 cells measured after 72 hrs by MTT assay; type: functional, cell-based; settings: HepG2, 72 h
[2] = system: Staphylococcus epidermidis; assay: Antibacterial activity against Staphylococcus epidermidis ATCC 12228 incubated for 16 to 18 hrs by CLSI based broth dilution method; type: functional; settings: time 16-18 hrs
Staphylococcus aureus [3] = assay: Antibacterial activity against methicillin-resistant Staphylococcus aureus ATCC 43300 incubated for 16 to 18 hrs by CLSI based broth dilution method; type: functional; settings: time 16-18 hrs
MCF7 = assay: Cytotoxicity against human MCF7 cells measured after 72 hrs by MTT assay; type: functional, cell-based; settings: MCF7, 72 h
HGC-27 = assay: Cytotoxicity against human HGC-27 cells measured after 72 hrs by MTT assay; type: functional, cell-based; settings: HGC-27, 72 h
Escherichia coli = assay: Antibacterial activity against Escherichia coli ATCC 25922 incubated for 16 to 18 hrs by CLSI based broth dilution method; type: functional; settings: time 16-18 hrs
[4] = target: T1, Dihydrofolate reductase (Homo sapiens) (UniProt P00374); assay: Inhibition of human DHFR at 1 uM incubated for 10 mins in presence of NADPH by colorimetry based analysis relative to control
T1 sequence (whole entry): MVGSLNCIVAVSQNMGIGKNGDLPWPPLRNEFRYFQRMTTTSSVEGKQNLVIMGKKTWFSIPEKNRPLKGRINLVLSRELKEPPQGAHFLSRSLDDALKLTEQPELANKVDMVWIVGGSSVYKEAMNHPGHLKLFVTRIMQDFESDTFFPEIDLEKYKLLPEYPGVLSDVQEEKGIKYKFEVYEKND

Compound | MIC (Acinetobacter baumannii) | MIC (Staphylococcus aureus [1]) | IC50 (HCT-116) | MIC (Enterococcus faecalis) | IC50 (HepG2) | MIC [2] | MIC (Staphylococcus aureus [3]) | IC50 (MCF7) | IC50 (HGC-27) | MIC (Escherichia coli) | inhibition [4]
Cc1cc2c3c(N)nc(N)nc3ccc2n1Cc1ccc(-c2ccccc2)cc1 | > 32 µg/mL | 4 µg/mL (≈ 10.5 µM) | 2260 nM | 4 µg/mL (≈ 10.5 µM) | 1310 nM | ≤ 0.004 µg/mL | 4 µg/mL (≈ 10.5 µM) | 1470 nM | 7060 nM | > 8 µg/mL | –
Nc1nc(N)c2c(ccc3c2ccn3Cc2ccc3sc(N)nc3c2)n1 | > 32 µg/mL | > 8 µg/mL | > 10000 nM | > 8 µg/mL | > 10000 nM | 2 µg/mL (≈ 5.53 µM) | 8 µg/mL (≈ 22.1 µM) | > 10000 nM | > 10000 nM | > 8 µg/mL | –
COc1cc(Cc2cnc(N)nc2N)c2c(c1OC)OC(C1CC1)C=C2 (stereo not drawn) | – | 0.06 µg/mL (≈ 0.169 µM) | – | 0.06 µg/mL (≈ 0.169 µM) | – | ≤ 0.004 µg/mL | 0.06 µg/mL (≈ 0.169 µM) | – | – | 1 µg/mL (≈ 2.82 µM) | –
Nc1nc(N)c2c(ccc3c2ccn3Cc2cc3ccccc3s2)n1 | 32 µg/mL (≈ 92.6 µM) | 0.125 µg/mL (≈ 0.362 µM) | 1940 nM | 0.125 µg/mL (≈ 0.362 µM) | 270 nM | ≤ 0.004 µg/mL | 0.125 µg/mL (≈ 0.362 µM) | 910 nM | 510 nM | 0.25 µg/mL (≈ 0.724 µM) | 70.9%
Nc1nc(N)c2c(ccc3c2ccn3Cc2nc3ccccc3o2)n1 | 16 µg/mL (≈ 48.4 µM) | 0.5 µg/mL (≈ 1.51 µM) | 40 nM | 0.25 µg/mL (≈ 0.757 µM) | 660 nM | 0.008 µg/mL (≈ 0.0242 µM) | 0.25 µg/mL (≈ 0.757 µM) | 970 nM | 69 nM | 0.25 µg/mL (≈ 0.757 µM) | 16.1%
Nc1nc(N)c2c(ccc3c2ccn3Cc2ccc3nc(N)sc3c2)n1 | > 32 µg/mL | 2 µg/mL (≈ 5.53 µM) | 4 nM | 2 µg/mL (≈ 5.53 µM) | 61 nM | ≤ 0.004 µg/mL | 2 µg/mL (≈ 5.53 µM) | 250 nM | 6 nM | 4 µg/mL (≈ 11.1 µM) | 90.2%
Nc1nc(N)c2c(ccc3c2ccn3Cc2ccc3cc(C(=O)O)ccc3n2)n1 | – | 32 µg/mL (≈ 83.2 µM) | 9570 nM | > 8 µg/mL | 4650 nM | 0.25 µg/mL (≈ 0.65 µM) | 32 µg/mL (≈ 83.2 µM) | 9740 nM | 4210 nM | > 128 µg/mL | 77.4%
Nc1nc(N)c2c(ccc3c2ccn3Cc2ccc3ccccc3c2)n1 | – | 0.5 µg/mL (≈ 1.47 µM) | 50 nM | 0.5 µg/mL (≈ 1.47 µM) | 110 nM | 0.5 µg/mL (≈ 1.47 µM) | 0.25 µg/mL (≈ 0.737 µM) | > 1000 nM | 29 nM | 0.5 µg/mL (≈ 1.47 µM) | 70.9%
CCOC(=O)c1ccc(Cn2ccc3c4c(N)nc(N)nc4ccc32)c2ccccc12 | – | 0.5 µg/mL (≈ 1.22 µM) | 870 nM | 0.5 µg/mL (≈ 1.22 µM) | 530 nM | ≤ 0.06 µg/mL | 0.25 µg/mL (≈ 0.608 µM) | 8250 nM | < 100 nM | 64 µg/mL (≈ 156 µM) | 70.9%
Nc1nc(N)c2c(ccc3c2ccn3Cc2ccc3occc3c2)n1 | 1 µg/mL (≈ 3.04 µM) | 0.06 µg/mL (≈ 0.182 µM) | 2460 nM | 0.03 µg/mL (≈ 0.0911 µM) | 1250 nM | ≤ 0.004 µg/mL | 0.004 µg/mL (≈ 0.0121 µM) | 1000 nM | 410 nM | 0.125 µg/mL (≈ 0.38 µM) | 64.5%
Nc1nc(N)c2c(ccc3c2cc(-c2ccccc2)n3Cc2nc3ccccc3s2)n1 | > 128 µg/mL | > 128 µg/mL | > 1000 nM | 32 µg/mL (≈ 75.7 µM) | > 1000 nM | 64 µg/mL (≈ 151 µM) | > 128 µg/mL | > 1000 nM | > 1000 nM | > 128 µg/mL | 17.3%
Nc1nc(N)c2c(ccc3c2ccn3Cc2ccc3cc(C(=O)O)ccc3c2)n1 | – | 0.004 µg/mL (≈ 0.0104 µM) | 100 nM | 50 µg/mL (≈ 130 µM) | 140 nM | ≤ 0.004 µg/mL | 0.004 µg/mL (≈ 0.0104 µM) | 550 nM | 95 nM | > 128 µg/mL | 98.8%
Nc1nc(N)c2c(ccc3c2ccn3Cc2cc3ccccc3o2)n1 | 32 µg/mL (≈ 97.2 µM) | 0.25 µg/mL (≈ 0.759 µM) | 4800 nM | 0.25 µg/mL (≈ 0.759 µM) | 1070 nM | ≤ 0.004 µg/mL | 0.25 µg/mL (≈ 0.759 µM) | 1000 nM | 590 nM | 0.25 µg/mL (≈ 0.759 µM) | 29.1%
COc1ccc2nc(Cn3ccc4c5c(N)nc(N)nc5ccc43)sc2c1 | – | 0.5 µg/mL (≈ 1.33 µM) | 4420 nM | 0.5 µg/mL (≈ 1.33 µM) | 2710 nM | ≤ 0.004 µg/mL | 0.25 µg/mL (≈ 0.664 µM) | 1190 nM | 820 nM | 2 µg/mL (≈ 5.31 µM) | 38.7%
Nc1nc(N)c2c(ccc3c2ccn3Cc2ccc3sccc3c2)n1 | 4 µg/mL (≈ 11.6 µM) | 0.06 µg/mL (≈ 0.174 µM) | 8800 nM | 0.06 µg/mL (≈ 0.174 µM) | 530 nM | ≤ 0.004 µg/mL | 0.03 µg/mL (≈ 0.0868 µM) | 510 nM | 560 nM | 0.25 µg/mL (≈ 0.724 µM) | 87%
Cc1cc2c3c(N)nc(N)nc3ccc2n1Cc1cccc2scnc12 | 8 µg/mL (≈ 22.2 µM) | 1 µg/mL (≈ 2.77 µM) | > 10000 nM | 2 µg/mL (≈ 5.55 µM) | 250 nM | ≤ 0.004 µg/mL | 1 µg/mL (≈ 2.77 µM) | 450 nM | 4500 nM | > 8 µg/mL | 99.4%
Nc1nc(N)c2c(ccc3c2ccn3Cc2cccc3sc(N)nc23)n1 | 32 µg/mL (≈ 88.5 µM) | 0.25 µg/mL (≈ 0.692 µM) | 5810 nM | 0.25 µg/mL (≈ 0.692 µM) | 260 nM | ≤ 0.004 µg/mL | 0.125 µg/mL (≈ 0.346 µM) | 790 nM | 1770 nM | 0.5 µg/mL (≈ 1.38 µM) | 77.4%
Nc1nc(N)c2c(ccc3c2ccn3Cc2ccc(B(O)O)c3ccccc23)n1 | – | 0.25 µg/mL (≈ 0.652 µM) | < 100 nM | 0.125 µg/mL (≈ 0.326 µM) | < 100 nM | ≤ 0.004 µg/mL | 0.125 µg/mL (≈ 0.326 µM) | 110 nM | < 100 nM | 1 µg/mL (≈ 2.61 µM) | 77.4%
Nc1nc(N)c2c(ccc3c2ccn3Cc2nc3ccc(C(=O)O)cc3s2)n1 | > 32 µg/mL | 8 µg/mL (≈ 20.5 µM) | 1600 nM | > 8 µg/mL | 2190 nM | 0.5 µg/mL (≈ 1.28 µM) | > 8 µg/mL | 8120 nM | 890 nM | > 8 µg/mL | 80.6%
Nc1nc(N)c2c(ccc3c2ccn3Cc2ccc3ocnc3c2)n1 | > 32 µg/mL | 8 µg/mL (≈ 24.2 µM) | > 10000 nM | 4 µg/mL (≈ 12.1 µM) | 3650 nM | ≤ 0.004 µg/mL | 2 µg/mL (≈ 6.05 µM) | 5870 nM | 3540 nM | 2 µg/mL (≈ 6.05 µM) | 29.1%
COC(=O)c1ccc(Cn2ccc3c4c(N)nc(N)nc4ccc32)c2ccccc12 | – | 0.004 µg/mL (≈ 0.0101 µM) | 180 nM | 0.016 µg/mL (≈ 0.0403 µM) | 190 nM | ≤ 0.004 µg/mL | 0.004 µg/mL (≈ 0.0101 µM) | 1320 nM | < 100 nM | 2 µg/mL (≈ 5.03 µM) | 83.9%
Nc1nc(N)c2c(ccc3c2ccn3Cc2ccc(Br)c3ccccc23)n1 | – | 0.25 µg/mL (≈ 0.598 µM) | < 100 nM | 0.125 µg/mL (≈ 0.299 µM) | < 100 nM | ≤ 0.004 µg/mL | 0.125 µg/mL (≈ 0.299 µM) | 190 nM | < 100 nM | 1 µg/mL (≈ 2.39 µM) | 74.1%
COC(=O)c1ccc2nc(Cn3ccc4c5c(N)nc(N)nc5ccc43)ccc2c1 | – | 0.5 µg/mL (≈ 1.25 µM) | 210 nM | 0.25 µg/mL (≈ 0.627 µM) | 430 nM | 0.25 µg/mL (≈ 0.627 µM) | 0.25 µg/mL (≈ 0.627 µM) | 850 nM | < 100 nM | 2 µg/mL (≈ 5.02 µM) | 64.5%
COC(=O)c1ccc2nc(Cn3ccc4c5c(N)nc(N)nc5ccc43)sc2c1 | > 32 µg/mL | 4 µg/mL (≈ 9.89 µM) | 720 nM | 2 µg/mL (≈ 4.94 µM) | 490 nM | 0.008 µg/mL (≈ 0.0198 µM) | 2 µg/mL (≈ 4.94 µM) | > 10000 nM | 240 nM | > 8 µg/mL | –
Nc1nc(N)c2c(ccc3c2ccn3Cc2ccc3ncsc3c2)n1 | 16 µg/mL (≈ 46.2 µM) | 0.25 µg/mL (≈ 0.722 µM) | > 10000 nM | 0.25 µg/mL (≈ 0.722 µM) | 1170 nM | ≤ 0.004 µg/mL | 0.125 µg/mL (≈ 0.361 µM) | 3870 nM | 310 nM | 0.25 µg/mL (≈ 0.722 µM) | 80.6%
Nc1nc(N)c2c(ccc3c2ccn3Cc2ccc(C(=O)O)c3ccccc23)n1 | > 32 µg/mL | 2 µg/mL (≈ 5.22 µM) | > 10000 nM | 2 µg/mL (≈ 5.22 µM) | > 10000 nM | 0.5 µg/mL (≈ 1.3 µM) | 2 µg/mL (≈ 5.22 µM) | > 10000 nM | > 10000 nM | > 8 µg/mL | 93.5%
